Patent publication US6653301B2, “Pyrazole compounds useful as protein kinase inhibitors” (Vertex Pharmaceuticals Incorporated, priority 2000, dated 2003)

melting point: 212 to 215 °C
SMILES: COc1cccc(Nc2nc(Nc3cc(C)n[nH]3)c3ccccc3n2)c1 [IIc-56, [2-(3-Methoxyphenylamino)-quinazolin-4-yl]-(5-methyl-2H-pyrazol-3-yl)-amine]
